Earlier results, collected in patent publication US6491617B1, “Medical devices that resist restenosis” (St. Jude Medical, Inc., priority 1999, dated 2002).

Settings: nitric oxide-releasing agent, test system not stated

Molecule | IC50 (read-out: IC-50 concentration, i.e., a concentration at 50 percent effectiveness) [nM] | effective concentration [nM]
NCCCNCCCCNCCCN [Spermine, H2N(CH2)3NH2^+(CH2)4N[NONO]^−(CH2)3NH2] | 19.7 | –
NaO[NONO]Na [nitro percide] | – | 25
